{
  "source": "patent EP2845863A1",
  "about": "“Mathanococcus jannaschii protease and its use” (Consejo Superior de Investigaciones Cientificas (CSIC), priority 2013, dated 2015)",
  "biological_target": "T1, Methanococcus jannaschii selecase, wild type, SEQ ID No: 1 (Methanocaldococcus jannaschii, UniProt Q58610)",
  "T1 sequence (Q58610 1-110)": "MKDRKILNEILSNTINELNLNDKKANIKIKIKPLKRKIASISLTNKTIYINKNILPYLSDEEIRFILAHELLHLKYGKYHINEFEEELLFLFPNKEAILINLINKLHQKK",
  "assay": "Inhibition assay with fluorogenic substrate Abz-E-L-A-Y-F-Y-P-E-K(dnp)",
  "format": "biochemical",
  "conditions": "for activity at 100 µM: inhibitor 0.1 mM",
  "method": "Proteolytic activities were assayed at 37°C in buffer E (50 mM MES, 150 mM NaCl, pH 5.5), buffer F (50 mM HEPES, 150 mM NaCl, pH 7.5) or buffer G (50 mM CHES, 150 mM NaCl, pH 9.5) at a final protein concentration of 50 µg/ml unless otherwise stated.\nFor inhibition assays, selecase (at 2 µM in buffer F) was incubated for 30 min with different classes of protease inhibitors and the remaining proteolytic activity was then measured using the fluorogenic substrate Ab[…](dnp) at 37°C. Metal substitution assays were performed by removing the pre-existing metal upon purification through dialysis against 10 mM and 1 mM 1,10-phenanthroline and subsequent dialysis against 1 mM and 10 µM chloride or sulfate salt of a set of divalent metals, similarly as described above to obtain fully active protein. Metals tested were zinc, cobalt, magnesium, manganese, calcium, cadmium, copper, and nickel.",
  "key": {"[1]": {"conditions": "inhibitor 1 mM, selecase 2 µM in buffer F (50 mM HEPES, 150 mM NaCl, pH 7.5), incubated 30 min with inhibitor, remaining activity at 37°C, no inhibitor = 100, mean of three, SD within ±5, read-out: Relative activity (%)"}, "[2]": {"conditions": "selecase 2 µM in buffer F (50 mM HEPES, 150 mM NaCl, pH 7.5), incubated 30 min with inhibitor, remaining activity at 37°C, no inhibitor = 100, mean of three, SD within ±5, read-out: Relative activity (%)"}, "[3]": {"conditions": "inhibitor 1 mM, selecase 2 µM in buffer F (50 mM HEPES, 150 mM NaCl, pH 7.5), incubated 30 min with inhibitor, remaining activity at 37°C, no inhibitor = 100, mean of three, SD within ±5"}},
  "note": "Like-named read-outs stand apart in the source and are kept apart here. Non-standard residues stand in square brackets, D forms with d. Residues, ends and D or L forms follow the SMILES beside them. *: point of attachment. Sta = CC(C)C[C@H](N)[C@@H](O)CC(=O)O; Isovaleryl = CC(C)CC(=O)*",
  "data": [
    {"smiles": "N=C(N)c1ccccc1", "note": "[Benzamidine]", "values": [
      {"measurement": "activity at 1000 µM", "setting": "[1]", "value": 66, "unit": "%"}
    ]},
    {"smiles": "CC(C)C[C@H](NC(=O)[C@H]1O[C@@H]1C(=O)O)C(=O)NCCCCNC(=N)N", "note": "[E-64]", "values": [
      {"measurement": "activity at 100 µM", "setting": "[2]", "value": 98, "unit": "%"}
    ]},
    {"smiles": "O=C(O)CN(CCN(CC(=O)O)CC(=O)O)CC(=O)O", "note": "[EDTA]", "values": [
      {"measurement": "activity at 1000 µM", "setting": "pH 7.5, read-out: Relative activity (%)", "value": 0, "unit": "%"}
    ]},
    {"smiles": "O=S(=O)(F)Cc1ccccc1", "note": "[PMSF]", "values": [
      {"measurement": "Relative activity (%)", "setting": "[3]", "value": 82, "unit": "%"}
    ]},
    {"smiles": "NCCc1ccc(S(=O)(=O)F)cc1", "note": "[Pefabloc]", "values": [
      {"measurement": "Relative activity (%)", "setting": "[3]", "value": 78, "unit": "%"}
    ]},
    {"smiles": "CC(C)CC(=O)N[C@H](C(=O)N[C@H](C(=O)N[C@@H](CC(C)C)[C@@H](O)CC(=O)N[C@@H](C)C(=O)N[C@@H](CC(C)C)[C@@H](O)CC(=O)O)C(C)C)C(C)C", "note": "[Pepstatin A] (Isovaleryl-VV[Sta]A[Sta]-OH)", "values": [
      {"measurement": "activity at 100 µM", "setting": "[2]", "value": 75, "unit": "%"}
    ]},
    {"smiles": "NC(=O)CI", "note": "[lodoacetamide]", "values": [
      {"measurement": "activity at 1000 µM", "setting": "[1]", "value": 79, "unit": "%"}
    ]}
  ]
}
